Data: patent US20240208992A1, “MACROCYCLES AS CFTR MODULATORS” (Idorsia Pharmaceuticals Ltd, priority 2021, published 2024)

Biological target: human F508del-CFTR (Homo sapiens, UniProt P13569, DEL508-508)
Test: F508del-CFTR cell surface expression (corrector activity), DiscoveRx ß-galactosidase complementation chemiluminescence assay in recombinant U2OS cell line;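 note: U2OS cells co-expressing ProLink-tagged F508del-CFTR and a membrane-anchored enzyme acceptor, where more surface CFTR restores β-galactosidase activity measured by chemiluminescence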
Conditions: U2OS cells, 16h compound incubation; for EC50: EC50, F508del-CFTR cell surface expression, geomean of several measurements; for Emax: U2OS, in relation to the Emax of the corrector lumacaftor (=100%), arithmetic mean

Chain of human F508del-CFTR (P13569 with tags, fused parts or gaps DEL508-508): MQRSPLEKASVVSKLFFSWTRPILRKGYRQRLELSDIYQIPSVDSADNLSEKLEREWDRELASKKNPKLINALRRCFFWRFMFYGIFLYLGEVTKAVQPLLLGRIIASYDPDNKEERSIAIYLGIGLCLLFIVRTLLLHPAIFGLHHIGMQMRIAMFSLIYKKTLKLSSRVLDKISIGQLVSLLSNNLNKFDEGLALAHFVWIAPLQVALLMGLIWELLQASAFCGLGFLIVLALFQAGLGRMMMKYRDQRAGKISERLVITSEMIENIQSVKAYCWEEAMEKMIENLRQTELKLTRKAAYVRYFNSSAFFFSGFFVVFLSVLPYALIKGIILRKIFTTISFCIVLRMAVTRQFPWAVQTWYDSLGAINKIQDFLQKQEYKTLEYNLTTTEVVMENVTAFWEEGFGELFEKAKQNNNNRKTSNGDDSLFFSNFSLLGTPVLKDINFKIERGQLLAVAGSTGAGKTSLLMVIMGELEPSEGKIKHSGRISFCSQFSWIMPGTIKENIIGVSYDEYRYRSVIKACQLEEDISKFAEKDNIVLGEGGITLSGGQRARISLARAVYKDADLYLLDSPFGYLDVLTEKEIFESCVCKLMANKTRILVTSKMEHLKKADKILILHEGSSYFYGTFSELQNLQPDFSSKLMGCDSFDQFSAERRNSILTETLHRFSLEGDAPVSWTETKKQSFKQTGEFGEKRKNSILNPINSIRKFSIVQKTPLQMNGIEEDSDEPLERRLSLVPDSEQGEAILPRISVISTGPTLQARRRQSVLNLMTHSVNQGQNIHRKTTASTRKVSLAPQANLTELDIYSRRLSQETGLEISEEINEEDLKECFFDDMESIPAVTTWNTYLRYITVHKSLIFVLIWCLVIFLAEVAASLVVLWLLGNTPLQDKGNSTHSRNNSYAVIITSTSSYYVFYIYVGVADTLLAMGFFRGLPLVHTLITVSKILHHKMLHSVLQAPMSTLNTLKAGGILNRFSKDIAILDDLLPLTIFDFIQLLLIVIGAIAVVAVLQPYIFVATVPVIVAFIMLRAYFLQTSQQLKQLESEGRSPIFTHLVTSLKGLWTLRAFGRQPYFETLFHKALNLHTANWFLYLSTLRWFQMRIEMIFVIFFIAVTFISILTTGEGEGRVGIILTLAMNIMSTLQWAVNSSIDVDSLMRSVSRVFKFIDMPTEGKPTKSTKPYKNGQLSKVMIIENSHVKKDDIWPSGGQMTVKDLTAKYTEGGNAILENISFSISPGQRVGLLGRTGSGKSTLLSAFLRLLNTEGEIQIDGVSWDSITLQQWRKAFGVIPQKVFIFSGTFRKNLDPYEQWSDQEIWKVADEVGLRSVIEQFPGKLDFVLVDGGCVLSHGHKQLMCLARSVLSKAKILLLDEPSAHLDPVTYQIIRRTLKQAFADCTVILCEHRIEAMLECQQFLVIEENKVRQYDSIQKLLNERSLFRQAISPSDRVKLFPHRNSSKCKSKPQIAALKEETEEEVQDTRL

Row | Structure (SMILES) | EC50 | Emax
1 | CC(C)C[C@H]1C(=O)N(C)[C@H](Cc2nc(C(F)(F)F)no2)C(=O)N[C@H](Cc2ccccc2)COc2ccc3ncc(F)cc3c2C(=O)N[C@H](C(=O)NCCn2nc3ccccc3n2)CC(=O)N1C [Example 937, (3S,7S,10R,13R)-N-(2-(2H-benzo[d][1,2,3]triazol-2-yl)ethyl)-13-benzyl-20-fluoro-7-isobutyl-6,9-dimethyl-1,5,8,11-tetraoxo-10-((3-(trifluoromethyl)-1,2,4-oxadiazol-5-yl)methyl)-1,2,3,4,5,6,7,8,9,10,11,12,13,14-tetradecahydro-[1]oxa[4,7,10,14]tetraazacycloheptadecino[16,17-f]quinoline-3-carboxamide] | 59 nM | 460%
2 | COc1noc(CCNC(=O)[C@@H]2CC(=O)N(C)[C@@H](CC(C)C)C(=O)N(C)[C@H](CC(F)(F)F)C(=O)N[C@H](Cc3ccccc3)COc3ccc4cnc(C)cc4c3C(=O)N2)n1 [Example 938, (3S,7S,10R,13R)-13-benzyl-7-isobutyl-N-(2-(3-methoxy-1,2,4-oxadiazol-5-yl)ethyl)-6,9,20-trimethyl-1,5,8,11-tetraoxo-10-(2,2,2-trifluoroethyl)-1,2,3,4,5,6,7,8,9,10,11,12,13,14-tetradecahydro-[1]oxa[4,7,10,14]tetraazacycloheptadecino[16,17-f]isoquinoline-3-carboxamide] | 245 nM | 498%
3 | COc1noc(CCNC(=O)[C@@H]2CC(=O)N(C)[C@@H](CC(C)C)C(=O)N(C)[C@@H](CC(F)(F)F)C(=O)N[C@H](Cc3ccccc3)COc3ccc4cnc(C)cc4c3C(=O)N2)n1 [Example 939, (3S,7S,10S,13R)-13-benzyl-7-isobutyl-N-(2-(3-methoxy-1,2,4-oxadiazol-5-yl)ethyl)-6,9,20-trimethyl-1,5,8,11-tetraoxo-10-(2,2,2-trifluoroethyl)-1,2,3,4,5,6,7,8,9,10,11,12,13,14-tetradecahydro-[1]oxa[4,7,10,14]tetraazacycloheptadecino[16,17-f]isoquinoline-3-carboxamide] | 737 nM | 288%
4 | COc1noc(CCNC(=O)[C@@H]2CC(=O)N(C)[C@@H](CC(C)C)C(=O)N(C)[C@@H](CC(F)(F)F)C(=O)N[C@H](Cc3ccccc3)COc3ccc4ncc(F)cc4c3C(=O)N2)n1 [Example 940, (3S,7S,10S,13R)-13-benzyl-20-fluoro-7-isobutyl-N-(2-(3-methoxy-1,2,4-oxadiazol-5-yl)ethyl)-6,9-dimethyl-1,5,8,11-tetraoxo-10-(2,2,2-trifluoroethyl)-1,2,3,4,5,6,7,8,9,10,11,12,13,14-tetradecahydro-[1]oxa[4,7,10,14]tetraazacycloheptadecino[16,17-f]quinoline-3-carboxamide] | 673 nM | 298%
5 | COc1noc(CCNC(=O)[C@@H]2CC(=O)N(C)[C@@H](CC(C)C)C(=O)N(C)[C@H](CC(F)(F)F)C(=O)N[C@H](Cc3ccccc3)COc3ccc4ncc(F)cc4c3C(=O)N2)n1 [Example 941, (3S,7S,10R,13R)-13-benzyl-20-fluoro-7-isobutyl-N-(2-(3-methoxy-1,2,4-oxadiazol-5-yl)ethyl)-6,9-dimethyl-1,5,8,11-tetraoxo-10-(2,2,2-trifluoroethyl)-1,2,3,4,5,6,7,8,9,10,11,12,13,14-tetradecahydro-[1]oxa[4,7,10,14]tetraazacycloheptadecino[16,17-f]quinoline-3-carboxamide] | 135 nM | 459%
6 | COc1noc(CCNC(=O)[C@@H]2CC(=O)N(C)[C@@H](CC(C)C)C(=O)N(C)[C@H](CC(F)(F)F)C(=O)N[C@H](Cc3ccccc3)COc3cc(C)nc(OC)c3C(=O)N2)n1 [Example 942, (3R,6R,9S,13S)-3-benzyl-9-isobutyl-16-methoxy-N-(2-(3-methoxy-1,2,4-oxadiazol-5-yl)ethyl)-7,10,18-trimethyl-5,8,11,15-tetraoxo-6-(2,2,2-trifluoroethyl)-2,3,4,5,6,7,8,9,10,11,12,13,14,15-tetradecahydropyrido[3,4-p][1]oxa[4,7,10,14]tetraazacycloheptadecine-13-carboxamide] | 194 nM | 460%
7 | COc1nc(C)cc2c1C(=O)N[C@H](C(=O)NC[C@@H](O)c1nc(C3CC3)no1)CC(=O)N(C)[C@@H](CC(C)C)C(=O)N(C)[C@H](Cc1nc(C(F)(F)F)no1)C(=O)N[C@H](Cc1ccccc1)CO2 [Example 943, (3R,6R,9S,13S)-3-benzyl-N-((R)-2-(3-cyclopropyl-1,2,4-oxadiazol-5-yl)-2-hydroxyethyl)-9-isobutyl-16-methoxy-7,10,18-trimethyl-5,8,11,15-tetraoxo-6-((3-(trifluoromethyl)-1,2,4-oxadiazol-5-yl)methyl)-2,3,4,5,6,7,8,9,10,11,12,13,14,15-tetradecahydropyrido[3,4-p][1]oxa[4,7,10,14]tetraazacycloheptadecine-13-carboxamide] | 240 nM | 471%
8 | CC(C)C[C@H]1C(=O)N(C)[C@H](Cc2nc(C(F)(F)F)no2)C(=O)N[C@H](Cc2ccccc2)COc2ccc3ncc(F)cc3c2C(=O)N[C@H](C(=O)NCCCOC(F)F)CC(=O)N1C [Example 944, (3S,7S,10R,13R)-13-benzyl-N-(3-(difluoromethoxy)propyl)-20-fluoro-7-isobutyl-6,9-dimethyl-1,5,8,11-tetraoxo-10-((3-(trifluoromethyl)-1,2,4-oxadiazol-5-yl)methyl)-1,2,3,4,5,6,7,8,9,10,11,12,13,14-tetradecahydro-[1]oxa[4,7,10,14]tetraazacycloheptadecino[16,17-f]quinoline-3-carboxamide] | 77 nM | 336%
9 | COc1noc(CCNC(=O)[C@@H]2CC(=O)N(C)[C@@H](CC(C)C)C(=O)N(C)[C@H](Cc3nc(C(F)(F)F)no3)C(=O)N[C@H](Cc3ccccc3)COc3cc(C)nc(OC)c3C(=O)N2)c1F [Example 945, (3R,6R,9S,13S)-3-benzyl-N-(2-(4-fluoro-3-methoxyisoxazol-5-yl)ethyl)-9-isobutyl-16-methoxy-7,10,18-trimethyl-5,8,11,15-tetraoxo-6-((3-(trifluoromethyl)-1,2,4-oxadiazol-5-yl)methyl)-2,3,4,5,6,7,8,9,10,11,12,13,14,15-tetradecahydropyrido[3,4-p][1]oxa[4,7,10,14]tetraazacycloheptadecine-13-carboxamide] | 33 nM | 502%
10 | Cc1cc(CCNC(=O)[C@@H]2CC(=O)N(C)[C@@H](CC(C)C)C(=O)N(C)[C@H](CC(F)F)C(=O)N[C@H](Cc3ccccc3)COc3ccc4ncc(F)cc4c3C(=O)N2)on1 [Example 946, (3S,7S,10R,13R)-13-benzyl-10-(2,2-difluoroethyl)-20-fluoro-7-isobutyl-6,9-dimethyl-N-(2-(3-methylisoxazol-5-yl)ethyl)-1,5,8,11-tetraoxo-1,2,3,4,5,6,7,8,9,10,11,12,13,14-tetradecahydro-[1]oxa[4,7,10,14]tetraazacycloheptadecino[16,17-f]quinoline-3-carboxamide] | 447 nM | 404%
11 | COc1noc(CCNC(=O)[C@@H]2CC(=O)N(C)[C@@H](CC(C)C)C(=O)N(C)[C@H](CC(F)F)C(=O)N[C@H](Cc3ccccc3)COc3ccc4ncc(F)cc4c3C(=O)N2)n1 [Example 947, (3S,7S,10R,13R)-13-benzyl-10-(2,2-difluoroethyl)-20-fluoro-7-isobutyl-N-(2-(3-methoxy-1,2,4-oxadiazol-5-yl)ethyl)-6,9-dimethyl-1,5,8,11-tetraoxo-1,2,3,4,5,6,7,8,9,10,11,12,13,14-tetradecahydro-[1]oxa[4,7,10,14]tetraazacycloheptadecino[16,17-f]quinoline-3-carboxamide] | 281 nM | 458%
12 | COc1cc(CCNC(=O)[C@@H]2CC(=O)N(C)[C@@H](CC(C)C)C(=O)N(C)[C@H](Cc3nc(C(F)(F)F)no3)C(=O)N[C@H](Cc3ccccc3)COc3ccnc(OC)c3C(=O)N2)on1 [Example 948, (3R,6R,9S,13S)-3-benzyl-9-isobutyl-16-methoxy-N-(2-(3-methoxyisoxazol-5-yl)ethyl)-7,10-dimethyl-5,8,11,15-tetraoxo-6-((3-(trifluoromethyl)-1,2,4-oxadiazol-5-yl)methyl)-2,3,4,5,6,7,8,9,10,11,12,13,14,15-tetradecahydropyrido[3,4-p][1]oxa[4,7,10,14]tetraazacycloheptadecine-13-carboxamide] | 61 nM | 501%
13 | COc1noc(CCNC(=O)[C@@H]2CC(=O)N(C)[C@@H](CC(C)C)C(=O)N(C)[C@H](Cc3nc(C(F)(F)F)no3)C(=O)N[C@H](Cc3ccccc3)COc3ccnc(OC)c3C(=O)N2)n1 [Example 949, (3R,6R,9S,13S)-3-benzyl-9-isobutyl-16-methoxy-N-(2-(3-methoxy-1,2,4-oxadiazol-5-yl)ethyl)-7,10-dimethyl-5,8,11,15-tetraoxo-6-((3-(trifluoromethyl)-1,2,4-oxadiazol-5-yl)methyl)-2,3,4,5,6,7,8,9,10,11,12,13,14,15-tetradecahydropyrido[3,4-p][1]oxa[4,7,10,14]tetraazacycloheptadecine-13-carboxamide] | 113 nM | 518%
14 | Cc1cc2c3c(ccc2cn1)OC[C@@H](Cc1ccccc1)NC(=O)[C@@H](CC(F)(F)F)N(C)C(=O)[C@H](CC(C)C)N(C)C(=O)C[C@@H](C(=O)NCCc1noc(C2CC2)n1)NC3=O [Example 950, (3S,7S,10R,13R)-13-benzyl-N-(2-(5-cyclopropyl-1,2,4-oxadiazol-3-yl)ethyl)-7-isobutyl-6,9,20-trimethyl-1,5,8,11-tetraoxo-10-(2,2,2-trifluoroethyl)-1,2,3,4,5,6,7,8,9,10,11,12,13,14-tetradecahydro-[1]oxa[4,7,10,14]tetraazacycloheptadecino[16,17-f]isoquinoline-3-carboxamide] | 201 nM | 464%
